{"source": "ChEMBL document CHEMBL1201862", "about": "“PubChem BioAssay data set” (2004)", "key": {"[1]": {"assay": "control 3'UTR Renilla luciferase suppression, dose response, counter-screen for Shn3 inhibitor project, cell-based, Clone20-Shn3RL, cherry-picked (AID 624133)", "format": "functional"}, "[2]": {"assay": "inhibitors of intracellular T. cruzi replication, confirmation, NIH3T3 host cells, beta-gal luminescence (AID 2044);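 further: luminescent beta-galactosidase reporter signal from transgenic T. cruzi replicating inside host cells; inhibitors lower the luminescence signal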", "format": "functional, cell-based"}, "[3]": {"assay": "Shn3 3'UTR reporter inhibitors, dose response, cell-based, Clone20 osteoblasts, firefly luciferase, cherry-picked (AID 624132)", "format": "functional"}, "[4]": {"assay": "HepG2 cell cytotoxicity, dose response, cytotoxicity control for Shn3 inhibitor project, CellTiter-Glo, cherry-picked (AID 624134)", "format": "functional, cell-based"}, "HEK293 [5]": {"test_system": "HEK293", "assay": "cells", "format": "functional, cell-based", "settings": "Homo sapiens"}, "[6]": {"biological_target": "Nucleotide-binding oligomerization domain-containing protein 2 (Homo sapiens, UniProt Q9HC29)", "sequence (Q9HC29 whole entry, the tested form may be a part)": "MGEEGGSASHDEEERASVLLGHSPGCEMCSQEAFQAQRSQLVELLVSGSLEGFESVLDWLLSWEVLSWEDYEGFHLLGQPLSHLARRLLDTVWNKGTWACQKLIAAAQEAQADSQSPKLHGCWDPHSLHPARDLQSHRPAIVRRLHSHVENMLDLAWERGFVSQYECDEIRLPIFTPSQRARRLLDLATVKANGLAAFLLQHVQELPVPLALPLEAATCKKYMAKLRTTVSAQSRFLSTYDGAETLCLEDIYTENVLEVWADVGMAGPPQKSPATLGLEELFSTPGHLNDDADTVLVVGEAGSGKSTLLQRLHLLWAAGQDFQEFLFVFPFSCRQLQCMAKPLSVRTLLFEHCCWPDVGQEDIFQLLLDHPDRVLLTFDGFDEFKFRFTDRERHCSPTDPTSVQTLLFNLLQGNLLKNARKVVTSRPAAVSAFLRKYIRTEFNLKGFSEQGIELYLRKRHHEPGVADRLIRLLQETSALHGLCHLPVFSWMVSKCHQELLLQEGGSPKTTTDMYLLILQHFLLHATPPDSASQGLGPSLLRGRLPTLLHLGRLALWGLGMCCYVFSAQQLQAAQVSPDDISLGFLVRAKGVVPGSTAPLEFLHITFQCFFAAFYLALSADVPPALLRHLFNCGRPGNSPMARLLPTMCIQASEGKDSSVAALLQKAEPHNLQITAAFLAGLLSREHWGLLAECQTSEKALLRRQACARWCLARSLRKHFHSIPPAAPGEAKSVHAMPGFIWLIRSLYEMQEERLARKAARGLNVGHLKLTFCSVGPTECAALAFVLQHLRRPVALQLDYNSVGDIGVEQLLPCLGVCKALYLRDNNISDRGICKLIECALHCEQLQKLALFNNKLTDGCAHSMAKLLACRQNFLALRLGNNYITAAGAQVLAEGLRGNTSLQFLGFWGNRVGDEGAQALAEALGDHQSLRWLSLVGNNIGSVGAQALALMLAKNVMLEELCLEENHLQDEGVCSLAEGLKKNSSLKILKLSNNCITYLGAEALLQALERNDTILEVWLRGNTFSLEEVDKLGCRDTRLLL", "assay": "NOD2 signaling inhibitors, cell-based, luminescence, uHTS, HEK293 (AID 1566)", "format": "functional"}, "[7]": {"assay": "NIH-3T3 fibroblast cytotoxicity, dose response, cytotoxicity control for antifungal single agent project, cell-based, Alamar Blue, dry powder (AID 602188)", "format": "functional"}, "INS1": {"test_system": "INS1", "assay": "beta cell apoptosis inhibitors, cytokine rescue, dose response, luminescence, retest (AID 449756);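 further: cell death triggered by IL-1 beta plus TNF-alpha plus IFN-gamma mixture; protective hits raise ATP signal compared with cytokine alone wells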", "format": "functional, cell-based", "settings": "Rattus norvegicus"}, "HEK293 [8]": {"test_system": "HEK293", "assay": "inhibitors of LMP1-driven NF-kB reporter, dose response, cell-based, HEK293, luciferase, cherry-pick (AID 588343)", "format": "functional", "settings": "Homo sapiens"}, "HEK293 [9]": {"test_system": "HEK293", "assay": "cells", "format": "functional, cell-based", "settings": "Homo sapiens", "remark": "listed apart in the source"}, "[10]": {"assay": "cytotoxicity toward NIH3T3 fibroblasts, dose response, counter-screen, cell-based, ATP luminescence, mouse fibroblasts (AID 2010);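 further: cells exposed to compound for about 90 hours before reading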", "format": "functional"}, "[11]": {"assay": "cytotoxicity in HEK-293T cells, dose response, cytotoxicity control for TCR NF-kB inhibitor project, luminescence, T-cell screen hits (AID 489026);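 further: cells exposed to compound about 14 hours before the viability readout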", "format": "functional, cell-based"}, "HEK293 [12]": {"test_system": "HEK293", "assay": "cells", "format": "functional, cell-based", "settings": "Homo sapiens", "remark": "listed apart in the source"}, "[13]": {"biological_target": "T1, Kappa-type opioid receptor (Homo sapiens, UniProt P41145)", "T1 sequence (P41145 whole entry)": "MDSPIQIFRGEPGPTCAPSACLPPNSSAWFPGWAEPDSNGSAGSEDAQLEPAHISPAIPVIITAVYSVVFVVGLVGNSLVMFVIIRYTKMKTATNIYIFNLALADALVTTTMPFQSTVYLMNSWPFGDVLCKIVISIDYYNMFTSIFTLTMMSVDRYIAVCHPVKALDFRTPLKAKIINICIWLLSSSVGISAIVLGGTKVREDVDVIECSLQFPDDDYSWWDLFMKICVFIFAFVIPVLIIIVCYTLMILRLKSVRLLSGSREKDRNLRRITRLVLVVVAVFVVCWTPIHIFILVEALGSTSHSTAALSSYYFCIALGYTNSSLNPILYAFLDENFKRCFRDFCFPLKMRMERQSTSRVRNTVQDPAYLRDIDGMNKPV", "format": "functional"}, "HEK293 [14]": {"test_system": "HEK293", "assay": "NOD1 signaling inhibitors, primary screen, cell-based, luminescence, uHTS (AID 1578)", "format": "functional", "settings": "Homo sapiens"}, "[15]": {"biological_target": "T1, Kappa-type opioid receptor", "format": "functional", "remark": "listed apart in the source"}, "[16]": {"biological_target": "T2, Heat shock factor protein 1 (Mus musculus, UniProt P38532)", "T2 sequence (P38532 whole entry)": "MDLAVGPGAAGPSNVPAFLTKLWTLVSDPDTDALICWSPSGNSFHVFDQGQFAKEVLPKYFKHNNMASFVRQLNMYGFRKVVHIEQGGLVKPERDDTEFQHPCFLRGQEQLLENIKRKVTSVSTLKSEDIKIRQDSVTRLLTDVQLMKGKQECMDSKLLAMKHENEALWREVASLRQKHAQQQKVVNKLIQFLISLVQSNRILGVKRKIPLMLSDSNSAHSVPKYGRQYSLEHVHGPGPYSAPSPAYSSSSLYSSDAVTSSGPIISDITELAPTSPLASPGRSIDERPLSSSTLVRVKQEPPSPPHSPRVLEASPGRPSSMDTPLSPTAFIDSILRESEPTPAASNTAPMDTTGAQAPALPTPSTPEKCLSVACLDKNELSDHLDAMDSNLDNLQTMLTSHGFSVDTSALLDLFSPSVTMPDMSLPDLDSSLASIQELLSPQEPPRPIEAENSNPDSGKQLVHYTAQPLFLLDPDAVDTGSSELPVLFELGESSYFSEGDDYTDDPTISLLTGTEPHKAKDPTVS", "assay": "HSF1 potentiators in luciferase reporter cells, confirmation, cell-based, NIH3T3, luminescence, dose retest (AID 435004);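 further: stress induced by proteasome inhibitor MG132 added 30 min after compound; actives raise luminescence as potentiators of the MG132 stress response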", "format": "functional"}, "Beta-galactosidase": {"biological_target": "Beta-galactosidase (Escherichia coli, UniProt Q8VNN2)", "sequence (Q8VNN2 whole entry)": "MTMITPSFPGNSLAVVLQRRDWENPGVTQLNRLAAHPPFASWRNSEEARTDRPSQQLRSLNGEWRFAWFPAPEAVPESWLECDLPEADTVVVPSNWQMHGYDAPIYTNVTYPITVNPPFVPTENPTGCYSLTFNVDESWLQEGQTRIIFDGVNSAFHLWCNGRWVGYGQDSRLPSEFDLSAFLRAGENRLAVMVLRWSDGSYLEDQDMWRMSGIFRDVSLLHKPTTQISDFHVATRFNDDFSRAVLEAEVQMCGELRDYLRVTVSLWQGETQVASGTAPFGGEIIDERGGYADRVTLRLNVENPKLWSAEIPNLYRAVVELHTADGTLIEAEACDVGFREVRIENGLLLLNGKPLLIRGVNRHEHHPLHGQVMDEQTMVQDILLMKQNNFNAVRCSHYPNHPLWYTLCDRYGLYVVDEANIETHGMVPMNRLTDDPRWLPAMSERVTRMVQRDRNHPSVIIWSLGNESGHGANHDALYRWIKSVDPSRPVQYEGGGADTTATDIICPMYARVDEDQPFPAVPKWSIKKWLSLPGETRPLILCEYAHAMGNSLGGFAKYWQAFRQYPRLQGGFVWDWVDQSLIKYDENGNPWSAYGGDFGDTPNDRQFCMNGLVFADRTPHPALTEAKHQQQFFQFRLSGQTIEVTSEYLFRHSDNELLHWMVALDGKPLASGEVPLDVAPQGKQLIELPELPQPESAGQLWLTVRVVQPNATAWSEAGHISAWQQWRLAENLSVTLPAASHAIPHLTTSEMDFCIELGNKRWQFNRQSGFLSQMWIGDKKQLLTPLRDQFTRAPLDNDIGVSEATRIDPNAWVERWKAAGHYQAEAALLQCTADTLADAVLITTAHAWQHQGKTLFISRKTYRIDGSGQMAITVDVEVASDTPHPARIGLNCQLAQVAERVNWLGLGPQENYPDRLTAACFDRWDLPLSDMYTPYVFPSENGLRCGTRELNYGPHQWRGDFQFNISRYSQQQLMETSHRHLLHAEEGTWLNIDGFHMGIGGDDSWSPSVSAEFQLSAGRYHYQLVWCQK", "format": "functional"}, "HEK293 [17]": {"test_system": "HEK293", "assay": "NOD2 signaling inhibitors in MDP-stimulated cells, cell-based, uHTS, luminescence (AID 2001)", "format": "functional", "settings": "Homo sapiens"}, "[18]": {"biological_target": "T3, Beta-2 adrenergic receptor (Homo sapiens, UniProt P07550)", "T3 sequence (P07550 whole entry)": "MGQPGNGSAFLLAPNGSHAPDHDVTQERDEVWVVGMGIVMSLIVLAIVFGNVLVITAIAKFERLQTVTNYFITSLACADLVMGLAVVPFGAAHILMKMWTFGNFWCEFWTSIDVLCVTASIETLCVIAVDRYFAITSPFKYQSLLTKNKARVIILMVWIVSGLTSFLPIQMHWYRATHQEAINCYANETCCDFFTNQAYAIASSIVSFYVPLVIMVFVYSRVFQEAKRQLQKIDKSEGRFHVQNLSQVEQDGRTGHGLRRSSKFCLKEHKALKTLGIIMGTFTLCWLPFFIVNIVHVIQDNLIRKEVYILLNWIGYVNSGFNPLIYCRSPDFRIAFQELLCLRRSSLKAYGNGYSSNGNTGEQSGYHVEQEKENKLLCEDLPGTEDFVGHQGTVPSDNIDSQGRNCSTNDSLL", "assay": "beta2AR agonists driving receptor internalization, dose response, cell-based, FAP fluorogen, flow cytometry, cherry pick 1 (AID 588763)", "format": "functional"}, "[19]": {"biological_target": "T3, Beta-2 adrenergic receptor", "assay": "Dose response for HTS for Beta-2AR agonists via FAP method from Powderset1.", "format": "functional"}, "[20]": {"assay": "Cytotoxicity Dose Response with AM2.2-beta2AR cells for PowderSet01.", "format": "functional, cell-based", "settings": "read-out: EC50_MICROM"}, "[21]": {"biological_target": "Benomyl/methotrexate resistance protein (Candida albicans, UniProt P28873)", "sequence (P28873 whole entry)": "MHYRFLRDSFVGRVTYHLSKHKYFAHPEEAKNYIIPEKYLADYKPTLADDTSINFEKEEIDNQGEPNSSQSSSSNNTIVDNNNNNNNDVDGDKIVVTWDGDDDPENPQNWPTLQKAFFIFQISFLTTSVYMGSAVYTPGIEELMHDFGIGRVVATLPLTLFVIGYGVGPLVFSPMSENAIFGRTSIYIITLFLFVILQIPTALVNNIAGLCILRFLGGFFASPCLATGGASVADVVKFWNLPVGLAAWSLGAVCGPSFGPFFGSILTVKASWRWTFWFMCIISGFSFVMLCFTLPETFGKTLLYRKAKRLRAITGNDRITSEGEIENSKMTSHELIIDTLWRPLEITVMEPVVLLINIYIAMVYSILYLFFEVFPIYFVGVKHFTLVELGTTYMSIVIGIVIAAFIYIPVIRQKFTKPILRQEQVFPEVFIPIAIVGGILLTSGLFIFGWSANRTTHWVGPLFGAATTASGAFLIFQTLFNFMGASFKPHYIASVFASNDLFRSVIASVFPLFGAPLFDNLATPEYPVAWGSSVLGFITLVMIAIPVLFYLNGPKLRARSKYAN", "assay": "CaMdr1 efflux pump inhibitor potency, dose response, singleplex, Cherry Pick1 hits (AID 588608)", "format": "functional"}, "[22]": {"biological_target": "Induced myeloid leukemia cell differentiation protein Mcl-1 (Homo sapiens, UniProt Q07820)", "sequence (Q07820 whole entry)": "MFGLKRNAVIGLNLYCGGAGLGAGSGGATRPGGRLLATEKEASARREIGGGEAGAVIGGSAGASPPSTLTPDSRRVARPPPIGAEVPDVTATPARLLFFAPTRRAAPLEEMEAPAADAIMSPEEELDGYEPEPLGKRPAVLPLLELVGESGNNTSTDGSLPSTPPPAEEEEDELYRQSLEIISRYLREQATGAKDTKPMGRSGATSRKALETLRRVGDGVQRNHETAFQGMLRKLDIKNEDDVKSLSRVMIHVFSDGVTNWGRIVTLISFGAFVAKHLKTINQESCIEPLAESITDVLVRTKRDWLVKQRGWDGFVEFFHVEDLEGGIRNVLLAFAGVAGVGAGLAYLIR", "format": "functional"}, "[23]": {"biological_target": "T4, Sentrin-specific protease 8 (Homo sapiens, UniProt Q96LD8)", "T4 sequence (Q96LD8 whole entry)": "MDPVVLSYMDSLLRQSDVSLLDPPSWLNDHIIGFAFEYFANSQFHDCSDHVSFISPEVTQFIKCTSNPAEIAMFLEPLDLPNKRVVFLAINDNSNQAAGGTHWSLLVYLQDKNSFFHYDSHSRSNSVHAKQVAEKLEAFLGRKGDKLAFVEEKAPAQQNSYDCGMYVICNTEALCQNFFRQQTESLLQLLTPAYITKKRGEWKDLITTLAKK", "format": "functional"}, "Estrogen receptor": {"biological_target": "T5, Estrogen receptor (Homo sapiens, UniProt P03372)", "T5 sequence (P03372 whole entry)": "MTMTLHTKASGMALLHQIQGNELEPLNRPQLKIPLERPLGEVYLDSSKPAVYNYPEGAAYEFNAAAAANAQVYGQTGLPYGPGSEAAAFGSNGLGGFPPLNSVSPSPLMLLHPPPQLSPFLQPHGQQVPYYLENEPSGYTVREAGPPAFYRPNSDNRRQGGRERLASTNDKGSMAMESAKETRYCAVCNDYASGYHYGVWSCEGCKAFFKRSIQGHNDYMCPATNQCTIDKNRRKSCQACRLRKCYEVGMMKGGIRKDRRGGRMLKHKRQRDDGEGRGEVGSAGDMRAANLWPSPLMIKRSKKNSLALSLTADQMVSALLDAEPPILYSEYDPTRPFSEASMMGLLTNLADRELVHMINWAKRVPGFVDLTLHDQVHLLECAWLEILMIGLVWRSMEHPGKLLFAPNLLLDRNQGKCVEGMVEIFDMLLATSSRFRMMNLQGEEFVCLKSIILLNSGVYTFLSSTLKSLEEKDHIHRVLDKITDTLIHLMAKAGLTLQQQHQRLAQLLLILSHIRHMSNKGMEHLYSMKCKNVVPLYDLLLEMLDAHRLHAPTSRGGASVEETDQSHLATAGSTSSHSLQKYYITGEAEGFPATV"}, "Estrogen receptor beta [24]": {"biological_target": "T6, Estrogen receptor beta (Homo sapiens, UniProt Q92731)", "T6 sequence (Q92731 whole entry)": "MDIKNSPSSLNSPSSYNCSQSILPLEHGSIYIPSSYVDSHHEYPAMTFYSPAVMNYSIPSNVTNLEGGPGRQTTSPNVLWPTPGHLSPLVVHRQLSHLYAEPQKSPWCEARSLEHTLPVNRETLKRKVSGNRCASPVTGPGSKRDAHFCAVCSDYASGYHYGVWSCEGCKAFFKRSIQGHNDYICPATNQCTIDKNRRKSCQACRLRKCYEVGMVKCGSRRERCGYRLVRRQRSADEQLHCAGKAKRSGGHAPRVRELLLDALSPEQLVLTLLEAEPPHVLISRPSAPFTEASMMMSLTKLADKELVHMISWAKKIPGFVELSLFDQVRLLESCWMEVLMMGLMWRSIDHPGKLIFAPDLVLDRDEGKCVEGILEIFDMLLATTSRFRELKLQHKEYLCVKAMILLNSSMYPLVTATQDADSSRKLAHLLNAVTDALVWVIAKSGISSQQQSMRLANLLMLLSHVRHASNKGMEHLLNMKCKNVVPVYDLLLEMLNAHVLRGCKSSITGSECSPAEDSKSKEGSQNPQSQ", "assay": "ERβ–SRC-3 coactivator interaction inhibitors, confirmation, orthogonal assay, biochemical, ELISA, streptavidin-HRP readout (AID 1060)"}, "Estrogen receptor beta [25]": {"biological_target": "T6, Estrogen receptor beta"}}, "note": "Active and inactive are the calls of the source."}
{"smiles": "O=C(Nc1nc(-c2ccccn2)cs1)c1ccc(Cl)s1", "values": [{"measurement": "AC50", "setting": "[1]", "result": "0.74 µM (active)"}, {"measurement": "EC50", "setting": "[2]", "result": "0.279 µM (active)"}, {"measurement": "AC50", "setting": "[3]", "result": "0.817 µM (active)"}, {"measurement": "AC50", "setting": "[4]", "result": "47.5 µM (active)"}, {"measurement": "IC50", "setting": "HEK293 [5]", "result": "> 20 µM (inactive)"}, {"measurement": "EC50", "setting": "[6]", "result": "> 20 µM (inactive)"}, {"measurement": "AC50", "setting": "[7]", "result": "0.949 µM (active)"}, {"measurement": "AC50", "setting": "INS1", "result": "0.759 µM (active)"}, {"measurement": "AC50", "setting": "HEK293 [8]", "result": "0.515 µM (active)"}, {"measurement": "IC50", "setting": "HEK293 [9]", "result": "> 20 µM (inactive)"}, {"measurement": "EC50", "setting": "[10]", "result": "0.506 µM (active)"}, {"measurement": "IC50", "setting": "[11]", "result": "36.8 µM (inactive)"}, {"measurement": "IC50", "setting": "HEK293 [12]", "result": "8.39 µM (active)"}, {"measurement": "IC50", "setting": "[13]", "result": "> 32", "unit": "µM"}, {"measurement": "EC50", "setting": "HEK293 [14]", "result": "7.06 µM (active)"}, {"measurement": "IC50", "setting": "[15]", "result": "> 31.5 µM (inactive)"}, {"measurement": "EC50", "setting": "[16]", "result": "2.06 µM (inconclusive)"}, {"measurement": "EC50", "setting": "Beta-galactosidase", "result": "> 31.5 µM (inactive)"}, {"measurement": "IC50", "setting": "HEK293 [17]", "result": "4.18 µM (active)"}]}
{"smiles": "CCCCC(=O)Nc1ccc(S(=O)(=O)N2CCCCC2c2cccnc2)cc1", "note": "(stereo not drawn)", "values": [{"measurement": "EC50", "setting": "[18]", "result": "0.0798 µM (active)"}, {"measurement": "EC50", "setting": "[19]", "result": "0.0322 µM (active)"}, {"measurement": "EC50", "setting": "[20]", "result": "23.3 µM (active)"}]}
{"smiles": "Nc1c(Cl)cc(C2=NCCn3nc4ccccc4c32)cc1Cl", "values": [{"measurement": "EC50", "setting": "[21]", "result": "3.99 µM (active)"}]}
{"smiles": "CC1=C(SCCC#N)S/C(=C2\\SC(C)=C(SCCC#N)S2)S1", "values": [{"measurement": "IC50", "setting": "[22]", "result": "2.89 µM (active)"}, {"measurement": "IC50", "setting": "[23]", "result": "0.299 µM (active)"}, {"measurement": "IC50", "setting": "Estrogen receptor", "result": "5.1 µM (active)"}, {"measurement": "IC50", "setting": "Estrogen receptor beta [24]", "result": "0.129 µM (not active)"}, {"measurement": "IC50", "setting": "Estrogen receptor beta [25]", "result": "> 50 µM (not active)"}]}
